The source of these data is US20250074891A1 (Anaxis Pharma Pty Ltd., priority 2021, published 2025).

The term Kd denotes a measure of binding affinity in units of concentration. Lower therefore signals a tighter complex.

Conditions in all cases: Table 35
In assay [1] the target is RIP3 (Homo sapiens (Human), UniProt Q9Y572). Briefly: KINOMEscan binding assay, RIP3. Here is the method: (§1) Kinase assays. For most assays, kinase-tagged T7 phage strains were grown in parallel in 24-well blocks in an E. coli host derived from the BL21 strain. E. coli were grown to log-phase and infected with T7 phage from a frozen stock (multiplicity of infection=0.4) and incubated with shaking at 32° C. until lysis (90-150 minutes).
RIP3, sequence (Q9Y572 whole entry): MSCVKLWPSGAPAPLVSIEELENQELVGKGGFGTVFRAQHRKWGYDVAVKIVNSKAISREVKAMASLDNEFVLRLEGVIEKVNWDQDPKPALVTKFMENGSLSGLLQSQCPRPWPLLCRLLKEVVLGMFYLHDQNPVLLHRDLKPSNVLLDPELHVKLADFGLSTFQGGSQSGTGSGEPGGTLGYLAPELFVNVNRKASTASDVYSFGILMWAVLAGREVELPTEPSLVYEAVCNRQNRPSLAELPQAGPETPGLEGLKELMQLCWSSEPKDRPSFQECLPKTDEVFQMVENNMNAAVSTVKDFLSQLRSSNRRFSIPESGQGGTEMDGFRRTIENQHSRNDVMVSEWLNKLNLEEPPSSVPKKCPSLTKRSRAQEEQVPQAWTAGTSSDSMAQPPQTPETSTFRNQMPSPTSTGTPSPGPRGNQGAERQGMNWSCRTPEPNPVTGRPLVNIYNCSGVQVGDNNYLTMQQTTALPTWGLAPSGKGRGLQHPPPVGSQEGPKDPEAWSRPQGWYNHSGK
(§2) The Hill Slope was set to −1.

Assay [2] addresses RIP1 (Homo sapiens (Human), UniProt Q13546). Briefly: KINOMEscan binding assay, RIP1.
Assay [3] concerns the target MLKL (full length) (Homo sapiens (Human), UniProt Q8NB16). Briefly: KINOMEscan binding assay, MLKL (full length). On the procedure: as §1, §2

MLKL (full length), sequence (Q8NB16 whole entry): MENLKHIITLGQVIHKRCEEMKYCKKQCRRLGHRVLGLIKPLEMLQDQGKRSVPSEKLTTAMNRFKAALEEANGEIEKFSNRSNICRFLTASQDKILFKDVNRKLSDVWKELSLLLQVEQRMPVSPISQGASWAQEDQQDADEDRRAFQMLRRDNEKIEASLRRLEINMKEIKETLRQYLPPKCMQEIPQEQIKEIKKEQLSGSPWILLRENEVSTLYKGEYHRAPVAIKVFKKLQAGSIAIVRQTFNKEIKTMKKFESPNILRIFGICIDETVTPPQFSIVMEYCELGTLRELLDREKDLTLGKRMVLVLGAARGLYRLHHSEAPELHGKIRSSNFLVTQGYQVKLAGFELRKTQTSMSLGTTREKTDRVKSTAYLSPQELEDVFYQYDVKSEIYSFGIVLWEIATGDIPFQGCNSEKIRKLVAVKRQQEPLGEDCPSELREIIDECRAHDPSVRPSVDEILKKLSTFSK
RIP1, sequence (Q13546 whole entry): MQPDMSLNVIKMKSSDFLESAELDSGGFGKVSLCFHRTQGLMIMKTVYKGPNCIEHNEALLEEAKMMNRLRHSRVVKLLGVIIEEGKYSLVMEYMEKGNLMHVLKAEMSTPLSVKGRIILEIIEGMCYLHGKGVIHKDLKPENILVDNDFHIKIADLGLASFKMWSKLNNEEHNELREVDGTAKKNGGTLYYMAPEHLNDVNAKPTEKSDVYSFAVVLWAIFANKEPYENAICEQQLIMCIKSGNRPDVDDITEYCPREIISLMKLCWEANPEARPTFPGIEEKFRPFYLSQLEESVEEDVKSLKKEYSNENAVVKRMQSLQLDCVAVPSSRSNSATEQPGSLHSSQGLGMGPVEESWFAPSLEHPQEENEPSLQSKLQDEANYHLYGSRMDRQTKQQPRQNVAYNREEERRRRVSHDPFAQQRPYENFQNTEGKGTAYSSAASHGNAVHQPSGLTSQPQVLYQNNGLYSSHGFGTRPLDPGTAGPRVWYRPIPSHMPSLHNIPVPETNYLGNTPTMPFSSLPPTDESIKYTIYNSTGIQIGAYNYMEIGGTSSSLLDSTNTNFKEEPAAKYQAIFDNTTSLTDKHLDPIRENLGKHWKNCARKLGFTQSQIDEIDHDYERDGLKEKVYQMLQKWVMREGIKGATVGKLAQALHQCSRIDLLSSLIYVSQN

`C[C@H](Oc1cc(-c2n[nH]c(Nc3cc(C(F)(F)F)n(C)n3)c2C(N)=O)ccc1NS(=O)(=O)C(F)F)c1ccc(F)cc1` [Compound 277, (S)-3-(4-((difluoromethyl)sulfonamido)-3-(1-(4-fluorophenyl)ethoxy)phenyl)-5-((1-methyl-5-(trifluoromethyl)-1H-pyrazol-3-yl)amino)-1H-pyrazole-4-carboxamide]: the equilibrium dissociation constant (Kd) in assay [1] is over 30 µM; in assay [2], over 30 µM; in assay [3] it was under 0.01 µM.

Take `C[C@H](Oc1cc(-c2n[nH]c(Nc3ccc(C4CCOCC4)cn3)c2C(N)=O)ccc1NS(=O)(=O)C(F)F)c1ccc(F)cc1` [Compound 278]: the Kd in assay [1] is over 30 µM; in assay [2], over 30 µM; in assay [3], under 0.01 µM.

Consider `C[C@H](Oc1cc(-c2n[nH]c(Nc3cc(C4CCC4)on3)c2C(N)=O)ccc1NS(=O)(=O)C(F)F)c1ccc(F)cc1` [Compound 281, (S)-5-((5-cyclobutylisoxazol-3-yl)amino)-3-(4-((difluoromethyl)sulfonamido)-3-(1-(4-fluorophenyl)ethoxy)phenyl)-1H-pyrazole-4-carboxamide], for which the results for the Kd in assay [1], in assay [2] and in assay [3] were over 30 µM, over 30 µM and under 0.01 µM, respectively.

Take `C[C@H](Oc1cc(-c2n[nH]c(Nc3cc(C(C)(C)C)on3)c2C(N)=O)ccc1NS(=O)(=O)C(F)F)c1ccc(F)cc1` [Compound 282, (S)-5-((5-(tert-butyl)isoxazol-3-yl)amino)-3-(4-((difluoromethyl)sulfonamido)-3-(1-(4-fluorophenyl)ethoxy)phenyl)-1H-pyrazole-4-carboxamide]: the Kd in assay [1] was over 30 µM; in assay [2] it was over 30 µM; in assay [3] it was under 0.01 µM.

`C[C@H](Oc1cc(-c2n[nH]c(Nc3ncn(C)n3)c2C(N)=O)ccc1NS(=O)(=O)C(F)F)c1ccc(F)cc1` [Compound 283, (S)-3-(4-((difluoromethyl)sulfonamido)-3-(1-(4-fluorophenyl)ethoxy)phenyl)-5-((1-methyl-1H-1,2,4-triazol-3-yl)amino)-1H-pyrazole-4-carboxamide]: the Kd was over 30 µM in assay [1], over 30 µM in assay [2] and under 0.01 µM in assay [3].

Consider `Cc1nc(Nc2[nH]nc(-c3ccc(NS(=O)(=O)C(F)F)c(O[C@@H](C)c4ccc(F)cc4)c3)c2C(N)=O)sc1C` [Compound 284, (S)-3-(4-((difluoromethyl)sulfonamido)-3-(1-(4-fluorophenyl)ethoxy)phenyl)-5-((4,5-dimethylthiazol-2-yl)amino)-1H-pyrazole-4-carboxamide], for which the Kd in assay [1] is over 30 µM; in assay [2], over 30 µM; in assay [3] it was under 0.01 µM.

`Cc1cn(C)nc1Nc1[nH]nc(-c2ccc(NS(=O)(=O)C(F)F)c(O[C@@H](C)c3ccc(F)cc3)c2)c1C(N)=O` [Compound 286, (S)-3-(4-((difluoromethyl)sulfonamido)-3-(1-(4-fluorophenyl)ethoxy)phenyl)-5-((1,4-dimethyl-1H-pyrazol-3-yl)amino)-1H-pyrazole-4-carboxamide]: the Kd in assay [1] was over 30 µM; in assay [2], over 30 µM; in assay [3], under 0.01 µM.

With `C[C@H](Oc1cc(-c2n[nH]c(Nc3cc(C4CCOCC4)ccn3)c2C(N)=O)ccc1NS(=O)(=O)C(F)F)c1ccc(F)cc1` [Compound 287, (S)-3-(4-((difluoromethyl)sulfonamido)-3-(1-(4-fluorophenyl)ethoxy)phenyl)-5-((4-(tetrahydro-2H-pyran-4-yl)pyridin-2-yl)amino)-1H-pyrazole-4-carboxamide], the Kd in assay [1] was over 30 µM; in assay [2] it was over 30 µM; in assay [3], under 0.01 µM.

For the compound `COCC(C)(C)c1cc(Nc2[nH]nc(-c3ccc(NS(=O)(=O)C(F)F)c(O[C@@H](C)c4ccc(F)cc4)c3)c2C(N)=O)no1` [Compound 288, (S)-3-(4-((difluoromethyl)sulfonamido)-3-(1-(4-fluorophenyl)ethoxy)phenyl)-5-((5-(1-methoxy-2-methylpropan-2-yl)isoxazol-3-yl)amino)-1H-pyrazole-4-carboxamide], the Kd in assay [1] was over 30 µM; in assay [2], over 30 µM; in assay [3] it was under 0.01 µM.

Consider `C[C@H](Oc1cc(-c2n[nH]c(Nc3cc(C4(C(F)(F)F)CC4)on3)c2C(N)=O)ccc1NS(=O)(=O)C(F)F)c1ccc(F)cc1` [Compound 289, (S)-3-(4-((difluoromethyl)sulfonamido)-3-(1-(4-fluorophenyl)ethoxy)phenyl)-5-((5-(1-(trifluoromethyl)cyclopropyl)isoxazol-3-yl)amino)-1H-pyrazole-4-carboxamide], for which the Kd in assay [1] is over 30 µM; in assay [2], over 30 µM; in assay [3], under 0.01 µM.

For the compound `Cc1cnc(Nc2[nH]nc(-c3ccc(NS(=O)(=O)C(F)F)c(OC4(c5ccc(F)cc5)CC4)c3)c2C(N)=O)cn1` [Compound 290, 3-(4-((difluoromethyl)sulfonamido)-3-(1-(4-fluorophenyl)cyclopropoxy)phenyl)-5-((5-methylpyrazin-2-yl)amino)-1H-pyrazole-4-carboxamide], the figures for the Kd in assay [1], in assay [2] and in assay [3] were over 30 µM, over 30 µM and under 0.01 µM, respectively.

On to `C[C@H](Oc1cc(-c2n[nH]c(Nc3cc(C4(C)COC4)on3)c2C(N)=O)ccc1NS(=O)(=O)C(F)F)c1ccc(F)cc1` [Compound 292, (S)-3-(4-((difluoromethyl)sulfonamido)-3-(1-(4-fluorophenyl)ethoxy)phenyl)-5-((5-(3-methyloxetan-3-yl)isoxazol-3-yl)amino)-1H-pyrazole-4-carboxamide], for which the figures for the Kd in assay [1], in assay [2] and in assay [3] were over 30 µM, over 30 µM and under 0.01 µM, respectively.

As for `COc1cc(Nc2[nH]nc(-c3ccc(NS(=O)(=O)C(F)F)c(O[C@@H](C)c4ccc(F)cc4)c3)c2C(N)=O)nn1C` [Compound 294, (S)-3-(4-((difluoromethyl)sulfonamido)-3-(1-(4-fluorophenyl)ethoxy)phenyl)-5-((5-methoxy-1-methyl-1H-pyrazol-3-yl)amino)-1H-pyrazole-4-carboxamide], the Kd in assay [1] is over 30 µM; in assay [2], over 30 µM; in assay [3], under 0.01 µM.

`C[C@H](Oc1cc(-c2n[nH]c(Nc3cc(C(C)(C)C)no3)c2C(N)=O)ccc1NS(=O)(=O)C(F)F)c1ccc(F)cc1` [Compound 295, (S)-5-((3-(tert-butyl)isoxazol-5-yl)amino)-3-(4-((difluoromethyl)sulfonamido)-3-(1-(4-fluorophenyl)ethoxy)phenyl)-1H-pyrazole-4-carboxamide]: the Kd in assay [1] is over 30 µM; in assay [2] it was over 30 µM; in assay [3], under 0.01 µM.

Turning to `C[C@H](Oc1cc(-c2n[nH]c(Nc3cnc(C4CCOCC4)cn3)c2C(N)=O)ccc1NS(=O)(=O)C(F)F)c1ccc(F)cc1` [Compound 296, (S)-3-(4-((difluoromethyl)sulfonamido)-3-(1-(4-fluorophenyl)ethoxy)phenyl)-5-((5-(tetrahydro-2H-pyran-4-yl)pyrazin-2-yl)amino)-1H-pyrazole-4-carboxamide], the equilibrium dissociation constant (Kd) in assay [1] was over 30 µM; in assay [2], over 30 µM; in assay [3] it was under 0.01 µM.

As for `C[C@H](Oc1cc(-c2n[nH]c(Nc3cc(C(C)(C)F)on3)c2C(N)=O)ccc1NS(=O)(=O)C(F)F)c1ccc(F)cc1` [Compound 297, (S)-3-(4-((difluoromethyl)sulfonamido)-3-(1-(4-fluorophenyl)ethoxy)phenyl)-5-((5-(2-fluoropropan-2-yl)isoxazol-3-yl)amino)-1H-pyrazole-4-carboxamide], the results for the Kd in assay [1], in assay [2] and in assay [3] were over 30 µM, over 30 µM and under 0.01 µM, respectively.

For `COC[C@@H](Oc1cc(-c2n[nH]c(Nc3cc(C)on3)c2C(N)=O)ccc1NS(=O)(=O)C(F)F)c1ccc(F)cc1` [Compound 300, (S)-3-(4-((difluoromethyl)sulfonamido)-3-(1-(4-fluorophenyl)-2-methoxyethoxy)phenyl)-5-((5-methylisoxazol-3-yl)amino)-1H-pyrazole-4-carboxamide], the Kd in assay [1] is over 30 µM; in assay [2], over 30 µM; in assay [3], under 0.01 µM.

Regarding `Cc1cc(Nc2[nH]nc(-c3ccc(NS(=O)(=O)C(F)F)c(O[C@@H](C)c4ccc(F)cc4)c3)c2C(N)=O)on1` [Compound 302, (S)-3-(4-((difluoromethyl)sulfonamido)-3-(1-(4-fluorophenyl)ethoxy)phenyl)-5-((3-methylisoxazol-5-yl)amino)-1H-pyrazole-4-carboxamide], the equilibrium dissociation constant (Kd) in assay [1] was over 30 µM; in assay [2], over 30 µM; in assay [3] it was under 0.01 µM.

`C[C@H](Oc1cc(-c2n[nH]c(Nc3cc(C4CCOCC4)on3)c2C(N)=O)ccc1NS(=O)(=O)C(F)F)c1ccc(F)cc1` [Compound 303, (S)-3-(4-((difluoromethyl)sulfonamido)-3-(1-(4-fluorophenyl)ethoxy)phenyl)-5-((5-(tetrahydro-2H-pyran-4-yl)isoxazol-3-yl)amino)-1H-pyrazole-4-carboxamide]: the values for the Kd in assay [1], in assay [2] and in assay [3] were over 30 µM, over 30 µM and under 0.01 µM, respectively.

As to `C[C@H](Oc1cc(-c2n[nH]c(Nc3cc(C4CCOC4)on3)c2C(N)=O)ccc1NS(=O)(=O)C(F)F)c1ccc(F)cc1` (stereo partly drawn) [Compound 305, 3-(4-((difluoromethyl)sulfonamido)-3-((S)-1-(4-fluorophenyl)ethoxy)phenyl)-5-((5-(tetrahydrofuran-3-yl)isoxazol-3-yl)amino)-1H-pyrazole-4-carboxamide], the figures for the Kd in assay [1], in assay [2] and in assay [3] were over 30 µM, over 30 µM and under 0.01 µM, respectively.

Turning to `C[C@H](Oc1cc(-c2n[nH]c(Nc3cnn(C4CCOCC4)c3)c2C(N)=O)ccc1NS(=O)(=O)C(F)F)c1ccc(F)cc1` [Compound 306, (S)-3-(4-((difluoromethyl)sulfonamido)-3-(1-(4-fluorophenyl)ethoxy)phenyl)-5-((1-(tetrahydro-2H-pyran-4-yl)-1H-pyrazol-4-yl)amino)-1H-pyrazole-4-carboxamide], the equilibrium dissociation constant (Kd) is over 30 µM in assay [1], over 30 µM in assay [2] and under 0.01 µM in assay [3].
